Test results from patent publication US9951089B2, “Methods of treating a fatty acid amide hydrolase-mediated condition” (INFINITY PHARMACEUTICALS, INC., priority 2010, dated 2018).

Target: T1, rat FAAH (Rattus norvegicus, UniProt P97612)
T1 construct: encoding for amino acids 32-579 and an N-terminal His-tag; His-tag (N); made in house; host or cells: E. coli BL21 (DE3)
T1 sequence (P97612 32-579): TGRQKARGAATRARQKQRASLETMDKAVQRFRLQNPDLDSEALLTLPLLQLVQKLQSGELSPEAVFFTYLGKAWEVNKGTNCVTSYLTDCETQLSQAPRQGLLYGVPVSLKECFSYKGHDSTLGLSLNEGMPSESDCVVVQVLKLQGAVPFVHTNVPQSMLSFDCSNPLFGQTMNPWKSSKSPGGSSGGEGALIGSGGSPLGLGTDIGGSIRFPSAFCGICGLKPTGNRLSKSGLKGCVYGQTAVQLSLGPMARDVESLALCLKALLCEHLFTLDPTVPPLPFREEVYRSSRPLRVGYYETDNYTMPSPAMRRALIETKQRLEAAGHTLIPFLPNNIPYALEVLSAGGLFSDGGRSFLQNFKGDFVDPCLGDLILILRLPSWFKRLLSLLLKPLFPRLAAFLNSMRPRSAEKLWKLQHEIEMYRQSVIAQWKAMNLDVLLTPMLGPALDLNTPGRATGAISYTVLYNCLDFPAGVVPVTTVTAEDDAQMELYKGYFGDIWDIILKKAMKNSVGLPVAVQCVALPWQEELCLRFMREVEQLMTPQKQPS
Experiment: Ki determination, rat FAAH (AMC-arachidonoyl amide hydrolysis, fluorescence end point)
Type: biochemical
Details: rFAAH 6 nM, substrate 20 μM, 30 min preincubation, 4 hours at room temperature
Procedure: An N-terminal transmembrane domain deleted rat FAAH (rFAAH) was cloned as described in Patricelli et al., Biochemistry (1998) 37:15177-15187, encoding for amino acids 32-579 and an N-terminal His-tag, herein referred to as rFAAH. E. coli BL21 (DE3) were transformed according to manufacturer protocols (Invitrogen) and rFAAH was expressed and purified from a modified procedure described in Patricelli et al., 1998.
Briefly, 8 L of cells were cultured to an OD600nm of 0.6 at 37° C., and FAAH expression induced by 1 mM IPTG, followed by 4 hours of growth. Cells were pelleted by centrifugation at 5000×g to generate the cell paste. […]
Soluble rFAAH was purified from the supernatant using nickel (Ni), heparin and size exclusion chromatography (SEC) columns. […] Eluted samples were pooled, concentrated to ˜5 mg/mL and final rFAAH concentrations determined by measuring the absorbance at 280 nm, using an extinction coefficient of ϵ=60850 M^−1 cm^−1. […]
The Ki of a test compound was determined for rat and human FAAH by measuring the dose dependent inhibition of AMC-Arachidonoyl amide hydrolysis as an end point read. Assays were carried out in Corning COSTAR® 384 well flat black bottom microtiter plates (Catalog #3654) and monitored in an Envision 2100 multilabel plate reader (Perkin Elmer-Wallac), with a 355 nm (40 nm band pass) excitation filter and 460 nm (25 nm bandpass) emission filter. […]

Q: How did the Ki turn out when `OB(O)c1ccc(-c2ccc(B(O)O)c(F)c2)cc1F` [IMP-4] was run?
A: Its Ki is 5.1 nM.
